From patent US20240409585A1, “MACROCYCLIC IMMUNOMODULATORS” (priority 2021, published 2024) come the findings set out here.

Molecules are shown by their SMILES. Bridge positions count the residues as written; N and C are the ends. Square brackets hold non-standard residues; d marks the D form. Peptide text beside a SMILES is read from it. * marks the point of attachment. ξ: configuration not given here. Phe(4-COOH) = N[C@@H](Cc1ccc(C(=O)O)cc1)C(=O)O; Bip = N[C@@H](Cc1ccc(-c2ccccc2)cc1)C(=O)O; Phe(3-Me) = Cc1cccc(C[C@H](N)C(=O)O)c1; Val(3-OH) = CC(C)(O)[C@H](N)C(=O)O; aIle = CC[C@@H](C)[C@H](N)C(=O)O; 3Pal = N[C@@H](Cc1cccnc1)C(=O)O; 4Pal = N[C@@H](Cc1ccncc1)C(=O)O; Cha = N[C@@H](CC1CCCCC1)C(=O)O; Cit = NC(=O)NCCC[C@H](N)C(=O)O; Ile(3ξ) = CCC(C)[C@H](N)C(=O)O; Thr(3ξ) = CC(O)[C@H](N)C(=O)O; NMeNle = CCCC[C@H](NC)C(=O)O; Carboxymethyl = O=C(O)C*; NMeA = CN[C@@H](C)C(=O)O; Orn = NCCC[C@H](N)C(=O)O; dDap = NC[C@@H](N)C(=O)O; Dab = NCC[C@H](N)C(=O)O; Dap = NC[C@H](N)C(=O)O

This assay deals with T1, PE-labeled human PD-L1-Ig binding to Jurkat cell line over-expressing human PD-1 (Jurkat-PD-1) (Homo sapiens, UniProt Q15116).
T1 construct: expressed in transfected cells; host or cells: Jurkat
T1 sequence (Q15116 25-288): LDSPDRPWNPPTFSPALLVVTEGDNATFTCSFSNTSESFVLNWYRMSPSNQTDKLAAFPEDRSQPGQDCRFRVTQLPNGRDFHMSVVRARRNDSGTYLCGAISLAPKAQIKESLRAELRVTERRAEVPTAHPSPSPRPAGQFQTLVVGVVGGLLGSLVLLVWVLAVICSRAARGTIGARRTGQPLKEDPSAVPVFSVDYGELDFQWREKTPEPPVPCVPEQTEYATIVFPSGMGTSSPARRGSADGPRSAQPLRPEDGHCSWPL
Briefly: Jurkat-PD-1 Cell Binding High-Content Screening Assay (CBA): Method 1. The settings on record: Jurkat-hPD-1 cells, PE-labeled PD-L1-Ig 20 nM final; read-out: Jurkat HPDL1 PD1 IC50 (uM) (Method 1).
The term IC50 denotes the concentration at which inhibition is half-maximal. For `Cc1cccc(C[C@@H]2NC(=O)[C@H](CC(=O)O)NC(=O)[C@H](Cc3ccncc3)NC(=O)[C@H](Cc3ccc(OCC(=O)O)cc3)NC(=O)CSC[C@@H](C(=O)N[C@@H](C)C(N)=O)NC(=O)[C@H](CO)NC(=O)[C@H](C(C)C)NC(=O)[C@H](CC(C)C)NC(=O)[C@H](CC(N)=O)NC(=O)[C@@H](C)NC(=O)[C@H](C)N(C)C(=O)[C@H](C(C)C)NC(=O)[C@H](Cc3ccc(-c4ccccc4)cc3)NC(=O)[C@H](CC(C)C)NC2=O)c1` [Compound 1583] ({CH2CO}-Y(Carboxymethyl)[4Pal]D[Phe(3-Me)]L[Bip]V[NMeA][dA]NLVSCA-NH2; thioether N-14), the IC50 stood at 0.01 µM.

`CC(C)C[C@H]1NC(=O)[C@H](C)N(C)C(=O)[C@H](C(C)C)NC(=O)[C@H](Cc2ccc(-c3ccccc3)cc2)NC(=O)[C@H](C(C)C)NC(=O)[C@H](Cc2c[nH]c3ccccc23)NC(=O)[C@H](CC(=O)O)NC(=O)[C@H](Cc2ccc(O)cc2)NC(=O)[C@H](CN)NC(=O)CSC[C@@H](C(=O)N[C@@H](C)C(N)=O)NC(=O)[C@H]([C@@H](C)O)NC(=O)[C@H](C(C)C)NC(=O)[C@H](CC2CCCCC2)NC(=O)[C@H](CCN)NC1=O` [Compound 1506] ({CH2CO}-[Dap]YDWV[Bip]V[NMeA][dL][Dab][Cha]VTCA-NH2; thioether N-14): the IC50 came to 0.02 µM.

In the case of `CC(C)C[C@@H]1NC(=O)[C@H](CCCN)NC(=O)[C@@H](CC(C)C)NC(=O)[C@H](C)N(C)C(=O)[C@H](CCCNC(N)=O)NC(=O)[C@H](Cc2ccc(-c3ccccc3)cc2)NC(=O)[C@H](C(C)C)NC(=O)[C@H](Cc2c[nH]c3ccccc23)NC(=O)[C@H](CC(=O)O)NC(=O)[C@H](Cc2ccc(O)cc2)NC(=O)[C@H](CC(N)=O)NC(=O)CSC[C@@H](C(=O)N[C@@H](C)C(N)=O)NC(=O)[C@H]([C@@H](C)O)NC(=O)[C@H](C(C)C)NC1=O` [Compound 1234] ({CH2CO}-NYDWV[Bip][Cit][NMeA][dL][Orn]LVTCA-NH2; thioether N-14), the IC50 was 0.03 µM.

As for `CC[C@@H](C)[C@@H]1NC(=O)[C@H](Cc2ccc(-c3ccccc3)cc2)NC(=O)[C@H](CC(C)C)NC(=O)[C@H](Cc2cccc(C)c2)NC(=O)[C@H](CC(=O)O)NC(=O)[C@H](Cc2ccc(C(=O)O)cc2)NC(=O)[C@H](Cc2ccc(OCC(=O)O)cc2)NC(=O)CSC[C@@H](C(N)=O)NC(=O)[C@H](CO)NC(=O)[C@H](C(C)C)NC(=O)[C@H](CC(C)C)NC(=O)[C@H](CC(N)=O)NC(=O)[C@@H](CC(C)C)NC(=O)[C@H](C)N(C)C1=O` [Compound 1639] ({CH2CO}-Y(Carboxymethyl)[Phe(4-COOH)]D[Phe(3-Me)]L[Bip][aIle][NMeA][dL]NLVSC-NH2; thioether N-14), the IC50 worked out at 0.06 µM.

For the molecule `CC(C)C[C@@H]1NC(=O)[C@H](Cc2c[nH]c3ccccc23)NC(=O)[C@H](CC(=O)O)NC(=O)[C@H](Cc2ccc(O)cc2)NC(=O)[C@H](Cc2ccccc2)NC(=O)CSC[C@@H](C(=O)NCC(N)=O)NC(=O)[C@H](CO)NC(=O)[C@H](C(C)C)NC(=O)[C@H](CC(C)C)NC(=O)[C@H](CC(N)=O)NC(=O)[C@@H](Cc2cnc[nH]2)NC(=O)[C@H](C)N(C)C(=O)[C@H](C(C)C)NC(=O)[C@H](Cc2ccc(-c3ccccc3)cc2)NC1=O` [Compound 1797] ({CH2CO}-FYDWL[Bip]V[NMeA][dH]NLVSCG-NH2; thioether N-14), the IC50 amounted to 0.16 µM.

Take `CC(C)C[C@@H]1NC(=O)[C@H](Cc2c[nH]c3ccccc23)NC(=O)[C@H](CC(=O)O)NC(=O)[C@H](Cc2ccc(O)cc2)NC(=O)[C@H](Cc2ccccc2)NC(=O)CSC[C@@H](C(=O)N[C@@H](C)C(N)=O)NC(=O)[C@H](CO)NC(=O)[C@H](C(C)C)NC(=O)[C@H](CC(C)C)NC(=O)[C@H](CC(N)=O)NC(=O)[C@@H](CN)NC(=O)[C@H](C)N(C)C(=O)[C@H](C(C)C)NC(=O)[C@H](Cc2ccc(-c3ccccc3)cc2)NC1=O` [Compound 1787] ({CH2CO}-FYDWL[Bip]V[NMeA][dDap]NLVSCA-NH2; thioether N-14): the IC50 amounted to 0.1 µM.

For `CC(C)C[C@@H]1NC(=O)[C@H](Cc2c[nH]c3ccccc23)NC(=O)[C@H](CC(=O)O)NC(=O)[C@H](Cc2ccc(O)cc2)NC(=O)[C@H](Cc2ccccc2)NC(=O)CSC[C@@H](C(=O)N[C@@H](C)C(N)=O)NC(=O)[C@H](CO)NC(=O)[C@H](CCCCN)NC(=O)[C@H](CC(C)C)NC(=O)[C@H](CC(N)=O)NC(=O)[C@@H](C)NC(=O)[C@H](C)N(C)C(=O)[C@H](C(C)C)NC(=O)[C@H](Cc2ccc(-c3ccccc3)cc2)NC1=O` [Compound 1529] ({CH2CO}-FYDWL[Bip]V[NMeA][dA]NLKSCA-NH2; thioether N-14), the IC50 is 0.05 µM.

Turning to `CC(C)C[C@@H]1NC(=O)[C@H](CCN)NC(=O)[C@@H](CC(C)C)NC(=O)[C@H](C)N(C)C(=O)[C@H](CCCNC(N)=O)NC(=O)[C@H](Cc2ccc(-c3ccccc3)cc2)NC(=O)[C@H](C(C)C)NC(=O)[C@H](Cc2c[nH]c3ccccc23)NC(=O)[C@H](CC(=O)O)NC(=O)[C@H](Cc2ccc(OCC(=O)O)cc2)NC(=O)[C@H](CC(N)=O)NC(=O)CSC[C@@H](C(=O)N[C@@H](C)C(N)=O)NC(=O)[C@H]([C@@H](C)O)NC(=O)[C@H](C(C)C)NC1=O` [Compound 1321] ({CH2CO}-NY(Carboxymethyl)DWV[Bip][Cit][NMeA][dL][Dab]LVTCA-NH2; thioether N-14), the IC50 is 0.08 µM.

Take `CC(C)C[C@H]1NC(=O)[C@H](C)N(C)C(=O)[C@H](CCCNC(N)=O)NC(=O)[C@H](Cc2ccc(-c3ccccc3)cc2)NC(=O)[C@H](C(C)C)NC(=O)[C@H](Cc2c[nH]c3ccccc23)NC(=O)[C@H](CC(=O)O)NC(=O)[C@H](Cc2ccc(O)cc2)NC(=O)[C@H](CC(N)=O)NC(=O)CSC[C@@H](C(=O)N[C@@H](C)C(N)=O)NC(=O)[C@H]([C@@H](C)O)NC(=O)[C@H](C(C)C)NC(=O)[C@H](CC2CCCCC2)NC(=O)[C@H](CCN)NC1=O` [Compound 1287] ({CH2CO}-NYDWV[Bip][Cit][NMeA][dL][Dab][Cha]VTCA-NH2; thioether N-14): the 50% inhibitory concentration (IC50) came to 0.01 µM.

For `CC(C)C[C@@H]1NC(=O)[C@H](CCN)NC(=O)[C@@H](CC(C)C)NC(=O)[C@H](C)N(C)C(=O)[C@H](CCCN)NC(=O)[C@H](Cc2ccc(-c3ccccc3)cc2)NC(=O)[C@H](C(C)C)NC(=O)[C@H](Cc2c[nH]c3ccccc23)NC(=O)[C@H](CC(=O)O)NC(=O)[C@H](Cc2ccc(O)cc2)NC(=O)[C@H](Cc2cnc[nH]2)NC(=O)CSC[C@@H](C(=O)N[C@@H](C)C(N)=O)NC(=O)[C@H]([C@@H](C)O)NC(=O)[C@H](C(C)C)NC1=O` [Compound 1362] ({CH2CO}-HYDWV[Bip][Orn][NMeA][dL][Dab]LVTCA-NH2; thioether N-14), the half-inhibitory concentration (IC50) was 0.03 µM.

As to `Cc1cccc(C[C@@H]2NC(=O)[C@H](CC(=O)O)NC(=O)[C@H](Cc3ccc(C(=O)O)cc3)NC(=O)[C@H](Cc3ccc(OCC(=O)O)cc3)NC(=O)CSC[C@@H](C(N)=O)NC(=O)[C@H](CO)NC(=O)[C@H](C(C)C)NC(=O)[C@H](CC3CCCCC3)NC(=O)[C@H](CC(N)=O)NC(=O)[C@@H](CC(C)C)NC(=O)[C@H](C)N(C)C(=O)[C@H](C(C)C)NC(=O)[C@H](Cc3ccc(-c4ccccc4)cc3)NC(=O)[C@H](CC(C)C)NC2=O)c1` [Compound 1681] ({CH2CO}-Y(Carboxymethyl)[Phe(4-COOH)]D[Phe(3-Me)]L[Bip]V[NMeA][dL]N[Cha]VSC-NH2; thioether N-14), the IC50 came to 0.03 µM.

As to `CC[C@H](C)[C@@H]1NC(=O)[C@H](Cc2ccc(-c3ccccc3)cc2)NC(=O)[C@H](C(C)C)NC(=O)[C@H](Cc2c[nH]c3ccccc23)NC(=O)[C@H](CC(=O)O)NC(=O)[C@H](Cc2ccc(O)cc2)NC(=O)[C@H](Cc2cccnc2)NC(=O)CSC[C@@H](C(=O)N[C@@H](C)C(N)=O)NC(=O)[C@H]([C@@H](C)O)NC(=O)[C@H](C(C)C)NC(=O)[C@H](CC(C)C)NC(=O)[C@H](CCN)NC(=O)[C@@H](CC(C)C)NC(=O)[C@H](C)N(C)C1=O` [Compound 1401] ({CH2CO}-[3Pal]YDWV[Bip]I[NMeA][dL][Dab]LVTCA-NH2; thioether N-14), the IC50 came out at 0.01 µM.

Regarding `CCC(C)[C@@H]1NC(=O)[C@H](Cc2ccc(-c3ccccc3)cc2)NC(=O)[C@H](Cc2cccc(C)c2)NC(=O)[C@H](Cc2c[nH]c3ccccc23)NC(=O)[C@H](CC(=O)O)NC(=O)[C@H](Cc2ccc(OCC(=O)O)cc2)NC(=O)[C@H](C(C)O)NC(=O)CSC[C@@H](C(=O)N[C@@H](CC(N)=O)C(=O)O)NC(=O)[C@H](CO)NC(=O)[C@H](C(C)C)NC(=O)[C@H](CC(C)C)NC(=O)[C@H](CCN)NC(=O)[C@@H](CC(C)C)NC(=O)[C@H](C)N(C)C1=O` (stereo partly drawn) [Compound 2222] ({CH2CO}-[Thr(3ξ)]Y(Carboxymethyl)DW[Phe(3-Me)][Bip][Ile(3ξ)][NMeA][dL][Dab]LVSCN-OH; thioether N-14), the half-inhibitory concentration (IC50) was determined as 0.29 µM.

With `CC(C)C[C@@H]1NC(=O)[C@H](CCN)NC(=O)[C@@H](CC(C)C)NC(=O)[C@H](C)N(C)C(=O)[C@H](CCCNC(N)=O)NC(=O)[C@H](Cc2ccc(-c3ccccc3)cc2)NC(=O)[C@H](C(C)C)NC(=O)[C@H](Cc2c[nH]c3ccccc23)NC(=O)[C@H](CC(=O)O)NC(=O)[C@H](Cc2ccc(O)cc2)NC(=O)[C@H](Cc2ccc(OCC(=O)O)cc2)NC(=O)CSC[C@@H](C(=O)N[C@@H](C)C(N)=O)NC(=O)[C@H]([C@@H](C)O)NC(=O)[C@H](C(C)C)NC1=O` [Compound 1324] ({CH2CO}-Y(Carboxymethyl)YDWV[Bip][Cit][NMeA][dL][Dab]LVTCA-NH2; thioether N-14), the 50% inhibitory concentration (IC50) turned out to be 0.03 µM.

Consider `CCCC[C@H]1C(=O)N[C@@H](Cc2ccc(C(=O)O)cc2)C(=O)N[C@@H](CC(=O)O)C(=O)N[C@@H](Cc2cccc(C)c2)C(=O)N[C@@H](Cc2ccc(C(=O)O)cc2)C(=O)N[C@@H](Cc2ccc(-c3ccccc3)cc2)C(=O)N[C@@H](Cc2ccc(C(=O)O)cc2)C(=O)N(C)[C@@H](C)C(=O)N[C@H](CC(C)C)C(=O)N[C@@H](CCN)C(=O)N[C@@H](CC2CCCCC2)C(=O)N[C@@H](C(C)(C)O)C(=O)N[C@@H](CO)C(=O)N[C@H](C(=O)N[C@@H](CCN)C(N)=O)CSCC(=O)N1C` [Compound 2205] ({CH2CO}-[NMeNle][Phe(4-COOH)]D[Phe(3-Me)][Phe(4-COOH)][Bip][Phe(4-COOH)][NMeA][dL][Dab][Cha][Val(3-OH)]SC[Dab]-NH2; thioether N-14), for which the IC50 turned out to be 0.06 µM.
